Results on 14 compounds are retold here after patent publication US11136301B2, “Broad spectrum antiviral compounds and uses thereof” (The Regents Of The University Of California, priority 2015, dated 2021).

Where two headings read alike, the source gives them in different places.

Experiment [1] relates to wild-type HIV-1 (HIV-1LAI) in H9 cells (non-permissive). The experiment can be described thus: microbe, parasite or virus in culture. It counts as cell-based.
Experiment [2] deals with wild-type HIV-1 (HIV-1LAI) in MT-4 cells (permissive). The experiment can be described thus: Antiviral activity assay: wild-type HIV-1 in permissive MT4 cells, reverse transcriptase activity in culture supernatants. It counts as cell-based.
Setting [3] is: Human immunodeficiency virus 1, H9, read-out: Antiviral activity (IC50 μM) H9, Table 2, wild-type HIV-1, non-permissive H9 cells.
The mark [4] stands for this setting: Human immunodeficiency virus 1, H9, read-out: Antiviral activity (IC50 μM) H9 cells, Table 5, wild-type HIV-1, non-permissive H9 cells.
[5] abbreviates: Human immunodeficiency virus 1, H9, read-out: Antiviral activity (IC50 μM) H9 cells, Table 8, wild-type HIV-1, non-permissive H9 cells.
[6] abbreviates: Human immunodeficiency virus 1, H9, read-out: Antiviral activity (IC50 μM) H9 cells, wild-type HIV-1 (HIV-1LAI), H9 cells (non-permissive), RT activity in culture supernatants, compounds 1 to 50 μM.
Setting [7] is: Human immunodeficiency virus 1, MT4, Table 2, wild-type HIV-1, permissive MT4 cells, read-out: Antiviral activity (IC50 μM) MT4.
Where [8] appears, read: Human immunodeficiency virus 1, MT4, wild-type HIV-1 (HIV-1LAI), MT4 cells (permissive), RT activity in culture supernatants, compounds 1 to 50 μM, read-out: Antiviral activity (IC50 μM) MT4 cells.
[9] abbreviates: Human immunodeficiency virus 1, H9, read-out: Antiviral activity (IC50 μM) H9 Cells, Table 4, wild-type HIV-1, non-permissive H9 cells.
[10] abbreviates: Human immunodeficiency virus 1, H9, read-out: Antiviral activity (IC50 μM) H9 Cells, Table 7, wild-type HIV-1, non-permissive H9 cells.
Where [11] appears, read: Human immunodeficiency virus 1, H9, read-out: IC50, anti-HIV-1 activity, non-permissive H9 cells.

Usually IC50 stands for the concentration needed to halve the response being measured. Take `COC(=O)c1ccc(Sc2ccccc2-c2cn(-c3ccccc3OC)nn2)cc1` [Compound 2bx, Methyl 4-((2-(1-(2-methoxyphenyl)-1H-1,2,3-triazol-4-yl)phenyl)thio)benzoate]: the IC50 in experiment [1] (setting [3]), in experiment [1] (setting [4]), in experiment [1] (setting [5]), in experiment [1] (setting [6]), in experiment [2] (setting [7]) and in experiment [2] (setting [8]) was above 50 µM throughout.
For the compound `COc1ccc(OC)c(-n2cc(-c3ccccc3Sc3ccc(C(=O)O)cc3)nn2)c1` [Compound 5fx, 4-((2-(1-(2,5-Dimethoxyphenyl)-1H-1,2,3-triazol-4-yl)phenyl)thio)benzoic Acid], the IC50 in experiment [1] (setting [3]), in experiment [1] (setting [9]), in experiment [1] (setting [10]), in experiment [1] (setting [4]), in experiment [1] (setting [5]) and in experiment [1] (setting [6]) was 4.5 µM throughout. The IC50 in experiment [2] (setting [7]) and in experiment [2] (setting [8]) was above 50 µM each time.
As for `COc1cccc(F)c1-n1cc(-c2ccccc2S(=O)(=O)c2ccc(C(=O)O)cc2)nn1` [Compound 7fy, 4-((2-(1-(2-Fluoro-6-methoxyphenyl)-1H-1,2,3-triazol-4-yl)phenyl)sulfonyl)benzoic Acid], the IC50 in experiment [1] (setting [3]), in experiment [1] (setting [4]), in experiment [1] (setting [5]), in experiment [1] (setting [6]), in experiment [2] (setting [7]) and in experiment [2] (setting [8]) was above 50 µM each time.
As to `COc1cccc(OC)c1-n1cc(-c2ccccc2S(=O)(=O)c2ccc([N+](=O)[O-])cc2)nn1` [Compound 6ay, 1-(2,6-Dimethoxyphenyl)-4-(2-((4-nitrophenyl)sulfonyl)phenyl)-1H-1,2,3-triazole], the IC50 in experiment [1] (setting [3]), in experiment [1] (setting [4]), in experiment [1] (setting [5]), in experiment [1] (setting [6]), in experiment [2] (setting [7]) and in experiment [2] (setting [8]) was above 50 µM each time.
Turning to `COc1cccc(-n2cc(-c3ccccc3S(=O)(=O)c3ccc(N)cc3)nn2)c1OC` [Compound 3ey, 4-((2-(1-(2,3-Dimethoxyphenyl)-1H-1,2,3-triazol-4-yl)phenyl)sulfonyl)aniline], the IC50 in experiment [1] (setting [3]), in experiment [1] (setting [9]), in experiment [1] (setting [10]), in experiment [1] (setting [4]), in experiment [1] (setting [5]) and in experiment [1] (setting [6]) was 12.4 µM in each case. The IC50 in experiment [2] (setting [7]) and in experiment [2] (setting [8]) was above 50 µM in each case.
With `COc1cccc(OC)c1-n1cc(-c2ccccc2S(=O)(=O)c2ccc(C(=O)O)cc2)nn1` [Compound 6fy, 4-((2-(1-(2,6-Dimethoxyphenyl)-1H-1,2,3-triazol-4-yl)phenyl)sulfonyl)benzoic Acid], the IC50 in experiment [1] (setting [3]), in experiment [1] (setting [9]), in experiment [1] (setting [10]), in experiment [1] (setting [4]), in experiment [1] (setting [5]) and in experiment [1] (setting [6]) was 1.2 µM throughout. The IC50 in experiment [1] (setting [11]) was 1 to 3 µM; in experiment [2] (setting [7]), above 50 µM; in experiment [2] (setting [8]), above 50 µM.
For `COc1cccc(F)c1-n1cc(-c2ccccc2S(=O)(=O)c2ccc([N+](=O)[O-])cc2)nn1` [Compound 7ay, 1-(2-Fluoro-6-methoxyphenyl)-4-(2-((4-nitrophenyl)sulfonyl)phenyl)-1H-1,2,3-triazole], the IC50 in experiment [1] (setting [3]), in experiment [1] (setting [4]), in experiment [1] (setting [5]), in experiment [1] (setting [6]), in experiment [2] (setting [7]) and in experiment [2] (setting [8]) was above 50 µM throughout.
In the case of `COc1ccccc1-n1cc(-c2ccccc2Sc2ccc(C(=O)O)cc2)nn1` [Compound 2fx, 4-((2-(1-(2-Methoxyphenyl)-1H-1,2,3-triazol-4-yl)phenyl)thio)benzoic Acid], the IC50 in experiment [1] (setting [3]), in experiment [1] (setting [9]), in experiment [1] (setting [10]), in experiment [1] (setting [4]), in experiment [1] (setting [5]) and in experiment [1] (setting [6]) was 1 µM each time. Besides, the IC50 in experiment [1] (setting [11]) was 1 to 3 µM; in experiment [2] (setting [7]), above 50 µM; in experiment [2] (setting [8]), above 50 µM.
Take `COc1ccccc1-n1cc(-c2ccccc2S(=O)(=O)c2ccc([N+](=O)[O-])cc2)nn1` [Compound 2ay, 1-(2-Methoxyphenyl)-4-(2-((4-nitrophenyl)sulfonyl)phenyl)-1H-1,2,3-triazole]: the IC50 in experiment [1] (setting [3]), in experiment [1] (setting [9]), in experiment [1] (setting [10]), in experiment [1] (setting [4]), in experiment [1] (setting [5]) and in experiment [1] (setting [6]) was 13.8 µM in each case. Also, the IC50 in experiment [2] (setting [7]) and in experiment [2] (setting [8]) was above 50 µM each time.
Take `COc1cccc(-n2cc(-c3ccccc3Sc3ccc(C(F)(F)F)cc3)nn2)c1OC` [Compound 3dx, 1-(2,3-Dimethoxyphenyl)-4-(2-((4-(trifluoromethyl)phenyl)thio)phenyl)-1H-1,2,3-triazole]: the IC50 in experiment [1] (setting [3]), in experiment [1] (setting [9]), in experiment [1] (setting [10]), in experiment [1] (setting [4]), in experiment [1] (setting [5]) and in experiment [1] (setting [6]) was 1.9 µM each time. Besides, the IC50 in experiment [1] (setting [11]) is 1 to 3 µM; in experiment [2] (setting [7]), above 50 µM; in experiment [2] (setting [8]), above 50 µM.
For the compound `COc1ccc(S(=O)(=O)c2ccccc2-c2cn(-c3cccc(OC)c3OC)nn2)cc1` [Compound 3cy, 1-(2,3-Dimethoxyphenyl)-4-(2-((4-methoxyphenyl)sulfonyl)phenyl)-1H-1,2,3-triazole], the IC50 in experiment [1] (setting [3]), in experiment [1] (setting [4]), in experiment [1] (setting [5]), in experiment [1] (setting [6]), in experiment [2] (setting [7]) and in experiment [2] (setting [8]) was above 50 µM in each case.
With `COc1ccc(S(=O)(=O)c2ccccc2-c2cn(-c3ccccc3OC)nn2)cc1` [Compound 2cy, 1-(2-Methoxyphenyl)-4-(2-((4-methoxyphenyl)sulfonyl)phenyl)-1H-1,2,3-triazole], the IC50 in experiment [1] (setting [3]), in experiment [1] (setting [9]), in experiment [1] (setting [10]), in experiment [1] (setting [4]), in experiment [1] (setting [5]) and in experiment [1] (setting [6]) was 4.3 µM each time. Besides, the IC50 in experiment [2] (setting [7]) and in experiment [2] (setting [8]) was above 50 µM throughout.
`COc1cccc(F)c1-n1cc(-c2ccccc2S(=O)(=O)c2ccc(N)cc2)nn1` [Compound 7ey, 4-((2-(1-(2-Fluoro-6-methoxyphenyl)-1H-1,2,3-triazol-4-yl)phenyl)sulfonyl)aniline]: the half-inhibitory concentration (IC50) in experiment [1] (setting [3]), in experiment [1] (setting [9]), in experiment [1] (setting [10]), in experiment [1] (setting [4]), in experiment [1] (setting [5]) and in experiment [1] (setting [6]) was 15 µM throughout. Also, the IC50 in experiment [2] (setting [7]) and in experiment [2] (setting [8]) was above 50 µM each time.
For the compound `COc1cccc(-n2cc(-c3ccccc3Sc3ccc(C(=O)O)cc3)nn2)c1OC` [Compound 3fx, 4-((2-(1-(2,3-Dimethoxyphenyl)-1H-1,2,3-triazol-4-yl)phenyl)thio)benzoic Acid], the IC50 in experiment [1] (setting [3]), in experiment [1] (setting [9]), in experiment [1] (setting [10]), in experiment [1] (setting [4]), in experiment [1] (setting [5]) and in experiment [1] (setting [6]) was 2.8 µM throughout. Moreover, the IC50 is 1 to 3 µM in experiment [1] (setting [11]), above 50 µM in experiment [2] (setting [7]) and above 50 µM in experiment [2] (setting [8]).
